Test results as given in PubChem BioAssay AID1963863 (Molecular Pharmacology Branch, DTP, NCI, 2024).

System: 931267-113-T-J1-PDC KRAS spheroid with HUVEC/MSC, viability
Experiment: Anticancer human tumor 931267-113-T-J1-PDC patient-derived colon adenocarcinoma cell line growth inhibition [KRAS2]
Settings: for IC50: curve of first compound; for viability, T/C: stronger effect = lower value
Text: Multicellular complex tumor spheroid response to RAS pathway inhibitors in combination with a targeted agents in patient-derived cell lines with oncogenic KRAS variants from multiple cancer types
A high-throughput screen of multi-cell type tumor spheroids was designed to identify active combinations of targeted small molecules and KRAS pathway inhibitors. Complex spheroids include a stromal component modeled by human endothelial cells (HUVEC) and fibroblasts modeled by human mesenchymal stem cells (MSCs). The concentration ranges selected for each drug and investigational agent were based upon clinically achievable concentrations if the clinical Cmax of the agent was known.
Compounds. The drugs and investigational agents: BI-3406 (NSC825286), BAY-293 (NSC824723), batoprotafib (TNO155; NSC825523), sotorasib (AMG 510; NSC818433), MRTX1257 (NSC819558), elimusertib (BAY 1895344; NSC800525), molibresib (GSK525762; NSC774829), temuterkib (LY3214996; NSC803410), venetoclax (NSC766270), alisertib (NSC759677), olaparib (NSC753686), talazoparib (NSC767125), erdafitinib (NSC781556), ipatasertib (NSC767898), cabozantinib (NSC761068), nintedanib (NSC756659), abemaciclib (NSC768073), docetaxel (NSC628503), trametinib (NSC758246), and sapanisertib (NSC764658) were obtained from the National Cancer Institute (NCI) Developmental Therapeutics Program Chemical Repository. The FDA-approved anticancer drug set is available from the Developmental Therapeutics Program. […] The stock solutions were prepared in dimethyl sulfoxide (DMSO, Sigma-Aldrich, St. Louis, MO, cat. D2650) at 800-fold the tested concentration and stored at -70 degrees C prior to their use. All drugs and investigational agents were tested over a range starting from a high concentration at or near the clinical Cmax and decreasing in half-log increments. If the clinical Cmax for an agent had not been determined, the highest concentration tested was 10 microM.
Cell Culture. All cells were maintained in an incubator at 37 degrees C and 5% CO2 with 95% humidity. The PDC lines were cultured according to standard operating procedures established by the NCI PDMR (https://pdmr.cancer.gov/sops/default.htm). Briefly, all PDCs were thawed and cultured in Matrigel-coated flasks prepared with a working solution of 1X Ham's F-12 nutrient mix, without supplementation (Invitrogen, Waltham, MA, cat. 11765054), 100 U/mL penicillin-streptomycin (Invitrogen, cat. 15140122), and 2.5% Matrigel (Corning Inc., Corning, NY, cat. 354248) for the first three passages. All PDCs were cultured in complete DMEM/F-12 media containing advanced DMEM/F-12 (Invitrogen, cat. 12634028), 4.9% defined fetal bovine serum, heat inactivated (HyClone Laboratories Inc., Logan, UT, cat. SH30070.03HI), 389 ng/mL hydrocortisone (Sigma-Aldrich, cat. H4001), 9.7 ng/mL human EGF recombinant protein (Invitrogen, cat. PHG0313), 23.4 microg/mL adenine (Sigma-Aldrich, cat. A2786), 97.3 U/mL penicillin-streptomycin (Invitrogen, cat. 15140122), 1.9 mM L-glutamine (Invitrogen, cat. 25030081), and 9.7 microM Y-27632 dihydrochloride (Tocris Bioscience, Bristol, United Kingdom, cat. 1254). The PDCs were cultured in complete DMEM/F12 media without 9.7 microM Y-27632 dihydrochloride for at least two passages prior to the screen. The established cell line HOP-62 was cultured in RPMI 1640 medium, HEPES (Invitrogen, cat. 22400105) with 10% defined fetal bovine serum (HyClone Laboratories Inc., cat. SH30070.03) and 2 mM L-glutamine (Invitrogen, cat. 25030081). The pooled donor HUVEC were cultured in endothelial cell growth medium 2 (PromoCell, Heidelberg, Germany, cat. C-22011) and the hMSC were cultured in mesenchymal stem cell growth medium 2 (PromoCell, cat. C-28009). For all experiments, HUVEC and hMSC were used at passages </=5, while the malignant cell lines were used at passages </=15. […]

[1] = second compound 0.1 µM, first compound 0.0316 µM
[2] = second compound 0.1 µM, first compound 0.1 µM
[3] = second compound 0.1 µM, first compound 0.316 µM
[4] = second compound 0.1 µM, first compound 1 µM
[5] = second compound 0.1 µM, first compound 3.16 µM
[6] = second compound 0.1 µM, first compound 10 µM
[7] = second compound 0.316 µM, first compound 0.0316 µM
[8] = second compound 0.316 µM, first compound 0.1 µM
[9] = second compound 0.316 µM, first compound 0.316 µM
[10] = second compound 0.316 µM, first compound 1 µM
[11] = second compound 0.316 µM, first compound 3.16 µM
[12] = second compound 0.316 µM, first compound 10 µM
[13] = second compound 1 µM, first compound 0.0316 µM
[14] = second compound 1 µM, first compound 0.1 µM
[15] = second compound 1 µM, first compound 0.316 µM
[16] = second compound 1 µM, first compound 1 µM
[17] = second compound 1 µM, first compound 3.16 µM
[18] = second compound 1 µM, first compound 10 µM
[19] = second compound 3.16 µM, first compound 0.0316 µM
[20] = second compound 3.16 µM, first compound 0.1 µM
[21] = second compound 3.16 µM, first compound 0.316 µM
[22] = second compound 3.16 µM, first compound 1 µM
[23] = second compound 3.16 µM, first compound 3.16 µM
[24] = second compound 3.16 µM, first compound 10 µM
[25] = second compound 10 µM, first compound 0.0316 µM
[26] = second compound 10 µM, first compound 0.1 µM
[27] = second compound 10 µM, first compound 0.316 µM
[28] = second compound 10 µM, first compound 1 µM
[29] = second compound 10 µM, first compound 3.16 µM
[30] = second compound 10 µM, first compound 10 µM
[31] = second compound 0.1 µM, first compound 0.01 µM
[32] = second compound 0.316 µM, first compound 0.01 µM
[33] = second compound 1 µM, first compound 0.01 µM
[34] = second compound 3.16 µM, first compound 0.01 µM
[35] = second compound 10 µM, first compound 0.01 µM
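Further: compound exposure lasted 7 days before the readout.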
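Wherever viability, T/C is given: 100% = DMSO vehicle control viability.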

SMILES	IC50 (second compound 0.1 µM)	IC50 (second compound 0.316 µM)	IC50 (second compound 1 µM)	IC50 (second compound 3.16 µM)	IC50 (second compound 10 µM)	viability, T/C [1]	viability, T/C [2]	viability, T/C [3]	viability, T/C [4]	viability, T/C [5]	viability, T/C [7]	viability, T/C [8]	viability, T/C [9]	viability, T/C [10]	viability, T/C [13]	viability, T/C [14]	viability, T/C [19]	viability, T/C [20]	viability, T/C [25]	viability, T/C [26]	other results
O=C(c1cc(Cc2n[nH]c(=O)c3ccccc23)ccc1F)N1CCN(C(=O)C2CC2)CC1 + COc1cc2nc(C)nc(NC(C)c3cc(N)cc(C(F)(F)F)c3)c2cc1OC1CCOC1	> 10 µM	> 10 µM	> 10 µM	> 10 µM	> 10 µM	78.7%	81.4%	85.7%	87.7%	94.6%	85.1%	99.7%	88.2%	70.9%	89.6%	92.1%	107%	87.5%	101%	112%	viability, T/C [6]: 113%; viability, T/C [11]: 85.6%; viability, T/C [12]: 73%; viability, T/C [15]: 99.1%; viability, T/C [16]: 112%; viability, T/C [17]: 97.5%; viability, T/C [18]: 84.1%; viability, T/C [21]: 95.5%; viability, T/C [22]: 94.4%; viability, T/C [23]: 106%; viability, T/C [24]: 105%; viability, T/C [27]: 94.7%; viability, T/C [28]: 98.3%; viability, T/C [29]: 90.3%; viability, T/C [30]: 97.3%
CC(=O)OC12COC1CC(O)C1(C)C(=O)C(O)C3=C(C)C(OC(=O)C(O)C(NC(=O)OC(C)(C)C)c4ccccc4)CC(O)(C(OC(=O)c4ccccc4)C21)C3(C)C (stereo not given) + C=CC(=O)N1CCN(c2nc(=O)n(-c3c(C)ccnc3C(C)C)c3nc(-c4c(O)cccc4F)c(F)cc23)C(C)C1	> 3.16 µM	> 3.16 µM	> 3.16 µM	> 3.16 µM	> 3.16 µM	96.3%	83.3%	82.9%	84.2%	102%	116%	110%	77.6%	110%	106%	103%	93.9%	91.1%	116%	98.7%	viability, T/C [31]: 93.1%; viability, T/C [32]: 94.4%; viability, T/C [11]: 119%; viability, T/C [33]: 102%; viability, T/C [15]: 81%; viability, T/C [16]: 117%; viability, T/C [17]: 90.6%; viability, T/C [34]: 103%; viability, T/C [21]: 96.8%; viability, T/C [22]: 99.6%; viability, T/C [23]: 113%; viability, T/C [35]: 87.1%; viability, T/C [27]: 110%; viability, T/C [28]: 116%; viability, T/C [29]: 113%
COc1cc2nccc(Oc3ccc(NC(=O)C4(C(=O)Nc5ccc(F)cc5)CC4)cc3)c2cc1OC + COc1cc2nc(C)nc(NC(C)c3cc(N)cc(C(F)(F)F)c3)c2cc1OC1CCOC1	7.32 µM	4.89 µM	2.84 µM	0.747 µM	< 0.0316 µM	105%	112%	98.2%	93%	63.8%	111%	102%	83.1%	90.9%	94.6%	107%	74%	87%	1.73%	0.3%	viability, T/C [6]: 44.8%; viability, T/C [11]: 51.1%; viability, T/C [12]: 37.2%; viability, T/C [15]: 90.6%; viability, T/C [16]: 91.5%; viability, T/C [17]: 45.6%; viability, T/C [18]: 28.5%; viability, T/C [21]: 74.7%; viability, T/C [22]: 41.4%; viability, T/C [23]: 4.72%; viability, T/C [24]: 0.2%; viability, T/C [27]: 0.4%; viability, T/C [28]: 1.03%; viability, T/C [29]: 0.15%; viability, T/C [30]: 0.23%
CN(C)C/C=C/C(=O)Nc1cc2c(Nc3ccc(F)c(Cl)c3)ncnc2cc1O[C@H]1CCOC1 + CC1OCC2(CCN(c3cnc(Sc4ccnc(N)c4Cl)c(N)n3)CC2)C1N	> 0.1 µM	> 0.1 µM	> 0.1 µM	< 0.000316 µM	> 0.1 µM	84.6%	69%				67.4%	80.4%			93.5%	90.8%	57.7%	49.4%	97.1%	93.7%	viability, T/C (second compound 0.1 µM, first compound 0.000316 µM): 80.6%; viability, T/C (second compound 0.1 µM, first compound 0.001 µM): 77.1%; viability, T/C (second compound 0.1 µM, first compound 0.00316 µM): 58.5%; viability, T/C [31]: 73.5%; viability, T/C (second compound 0.316 µM, first compound 0.000316 µM): 66.8%; viability, T/C (second compound 0.316 µM, first compound 0.001 µM): 70%; viability, T/C (second compound 0.316 µM, first compound 0.00316 µM): 65.5%; viability, T/C [32]: 62.6%; viability, T/C (second compound 1 µM, first compound 0.000316 µM): 84.4%; viability, T/C (second compound 1 µM, first compound 0.001 µM): 77.4%; viability, T/C (second compound 1 µM, first compound 0.00316 µM): 77%; viability, T/C [33]: 71.4%; viability, T/C (second compound 3.16 µM, first compound 0.000316 µM): 34.6%; viability, T/C (second compound 3.16 µM, first compound 0.001 µM): 48.8%; viability, T/C (second compound 3.16 µM, first compound 0.00316 µM): 49.1%; viability, T/C [34]: 49.6%; viability, T/C (second compound 10 µM, first compound 0.000316 µM): 90.2%; viability, T/C (second compound 10 µM, first compound 0.001 µM): 71.6%; viability, T/C (second compound 10 µM, first compound 0.00316 µM): 68.4%; viability, T/C [35]: 71.5%
